pIC50: −log10 of the molar value. Like-named read-outs stand apart in the source and are kept apart here.
Legend:
[1] = tested on: Ca^+2 influx in Jurkat cells (clone E6-1); assay: Calcium influx assay (thapsigargin-stimulated, Fluo-3); type: cell-based; details: Homo sapiens; Jurkat cells clone E6-1, thapsigargin 100 nM, 10 min preincubation
Method: Jurkat cells (clone E6-1) are pelleted by centrifugation, washed twice, and resuspended in RPMI 1640 containing, […], 1 % fetal calf serum, 3 μM Fluo-3-AM, 13.5 μl/ml Pluronic F 127 (Molecular Probes) and incubated for 1 hour at 37° C. The loaded cells are washed twice in Hanks Balanced Salt Solution containing 10 mM HEPES. The cells are resuspended in HBSS containing 10 mM HEPES, and dispensed into 96-well Dynatech black microtiter plates at 2×10^5 cells/well. The cells are preincubated with compounds for 10 minutes at room temperature. Baseline fluorescence of unstimulated cells is measured using an SLT fluorescent microtiter plate reader with an excitation wavelength of 495 nm and emission wavelength of 538 nm. Thapsigargin is then added to a final concentration of 100 nM. Following a 5 minute incubation, fluorescence of thapsigargin treated cells is measured. Delta fluorescence values are determined by subtracting baseline fluorescence values from thapsigargin induced fluorescence values.

[2] = tested on: IL-2 production in T lymphocytes (CD3+/CD4+ cells); assay: IL-2 production assay, Protocol B (antiCD3/antiCD28 as stimuli); type: cell-based; details: T-lymphocyte; human T lymphocytes, anti-CD3/anti-CD28 and goat anti-mouse coated beads, 16 hour
Method: Protocol B (antiCD3/antiCD28 as stimuli)
Human peripheral blood is obtained from healthy donors by venipuncture and the mononuclear cell fraction is prepared by centrifugation on Ficoll Hypaque (Phamacia) density gradients. Contaminating red blood cells are lysed and the CD3+/CD4+ cells are purified using immunoaffinity columns (R&D Systems or CellPro). The T lymphocytes are plated at 1-1.5×10^5 cells/well in a 96 well microtiter plate, and incubated with serial dilutions of compounds for 20 minutes at 37° C. The T cells are activated by the addition of 0.6 ng/ml anti-CD3 (Immunotech), 500 ng/ml anti-CD28 (Biodesign) and 2×10^5 goat anti-mouse coated beads (Dynal). The final volume of the assay is 200 μl. Following a 16 hour incubation at 37° C., the cells are pelleted, and the supernatants are removed and collected and stored at -70° C. until assayed for interleukin-2 using a commercial ELISA kit (R&D Systems).

[3] = tested on: IL-2 production in CD3+/CD4+ cells; assay: IL-2 production assay, Protocol A (ionomycin and PMA as stimuli); type: cell-based; details: human CD3+/CD4+ cells, ionomycin 1 μg/ml and PMA 10 ng/ml, 16 hr
Method: Protocol A (ionomycin and […] as stimuli)
Human peripheral blood is obtained from healthy donors by venipuncture and the mononuclear cell fraction is prepared by centrifugation on Ficoll Hypaque (Phamacia) density gradients. Contaminating red blood cells are lysed and the CD3+/CD4+ cells are purified using immunoaffinity columns (R&D Systems or CellPro). The cells are resuspended and dispensed in 96 well microtiter plates. Test compounds are added to the cells approximately 15 minutes prior to stimulation with ionomycin (1 μg/ml) and PMA (10 ng/ml). The final volume of the assay is 100 μL. Following a 16 hr incubation at 37° C., the cells are pelleted by centrifugation, and the supernatants are collected and stored at -70° C. until assayed for IL-2 using a commercial ELISA kit (Genzyme).

IL-2 promoter = IL-2 promoter assay (luciferase reporter in Jurkat cells); type: cell-based; details: Homo sapiens
Text: All the known regulatory features of IL-2 gene are contained within a ~300 bp sequence immediately upstream of the open reading frame. […] The resulting construct, pIL2P-luc, and a vector containing a neomycin resistance gene, pcDNA/Neo (Invitrogen), are linearized and stably transfected into Jurkat cells (a human T cell line) by electroporation.
For screening compounds, the cells are pelleted by centrifugation, washed once with PBS, resuspended in RPMI (phenol red-free) containing 5% FBS, and dispensed into 96-well, white microtiter plates (Packard) at 50,000 cells/well. The cells are pre-incubated with compounds (1 μg/ml) for 15 min prior to addition of ionomycin (1 μg/ml) and PMA (10 ng/ml) in a final volume of 100 μl. Following a 5 hr incubation at 37° C. in a humidified incubator, 100 μl of Luc-Lite lysis buffer/luciferase assay buffer (Promega) is added and luminescence measured using a Packard TopCount scintillation counter/luminometer.

[4] = tested on: allogeneic cell transplant response (T-cell-mediated immune response, popliteal lymph node); assay: Allogeneic cell transplant response in mice (popliteal lymph node weight); type: in vivo, mice (DBA donors, C57B1/6 recipients); details: 1 mg/kg, dosed one hour prior to cell injection and daily thereafter, ~four days
Text: Allogeneic Cell Transplant Response in Mice
The ability of cells to recognize other cells from self or from another genetically different individual (non-self) is an important property in maintaining the integrity of tissue and organ structure. The allogeneic cell transplant response is therefore an important model for studies of transplant rejection. This T-cell-mediated immune response can be induced in adult mice by the injection of lymphocytes from an histoincompatible mouse strain. This response is characterized by T cell proliferation which is limited to the popliteal lymph node that receives drainage from the footpad area. No in vitro system exists that can exactly duplicate completely this in vivo response. The assay is commonly used to evaluate new and novel potential immunosuppressive molecules.
Experiments are conducted using male or female mice (20-26 grams). Any histoincompatible mouse strains suffice for donor and recipient populations. Typically DBA mice are used as donors and C57B1/6 mice are used as recipients. A minimum of 1 week stabilization and conditioning period is usually required before use of the mice. Each study utilizes approximately 36 recipient mice divided into groups of 6.
Donor mice are sacrificed by CO2 asphyxiation and spleens are removed and a cell suspension is prepared. The cell suspension (1.0×10^7/metatarsal in 0.05 ml) is injected I.D. into the dorsal metatarsal skin of recipient mice. Four days later, the animals are sacrificed by CO2 asphyxiation and the popliteal nodes are removed and weighed. Groups of mice receiving putative immunosuppressive agents are dosed subcutaneously,intraperitoneally or orally one hour prior to cell injection and daily thereafter. The tests last approximately four days. The assay involves no footpad swelling and only a moderate increase in the size of the popliteal lymph node. Student's t test is used to determine significant differences between popliteal lymph nodes of groups of untreated mice and those mice treated with putative immunosuppressive agents.

[5] = Jurkat luciferase reporter cells, ionomycin 1 μg/ml and PMA 10 ng/ml, 5 hr, read-out: IL-2 PROMOTER IC50

Row | Compound | pIC50 [1] | IC50 [2] [µM] | IC50 [3] [µM] | pIC50 (IL-2 promoter; [5]) | ALLOGENEIC CELL TRANSPLANT % [4] [%] | pIC50 (IL-2 promoter; Jurkat, read-out: inhibition of luciferase activity, IC50)
1 | Cc1ccc(-c2cncc3[nH]c4ccccc4c23)cc1 [Compound 1, 4-(p-Methylphenyl)-β-carboline] | 6.52 | 6.2 | 2 | 5.82 | 38 | 
2 | c1ccc(-c2cncc3[nH]c4ccccc4c23)cc1 [Compound 2, 4-Phenyl-β-carboline] | 5.66 |  | 14 |  |  | 
3 | COc1ccc(-c2cncc3c2c2ccccc2n3C)cc1 [Compound 8] | 5.66 | 7.4 | > 20 |  |  | 
4 | COc1ccc(-c2cncc3c2c2ccccc2n3Cc2ccccc2)cc1 [Compound 10] | 5.34 | > 25 | 27 |  |  | 
5 | COc1ccccc1-c1cncc2[nH]c3ccccc3c12 [Compound 11] | 5.19 | 20 | 3 |  |  | 
6 | Cc1ccc(-c2cncc3[nH]c4cccc(C)c4c23)cc1 [Compound 15] | 6.05 | 9 |  |  |  | 
7 | Cc1ccc(-c2cncc3[nH]c4ccc(C)cc4c23)cc1 [Compound 16] | 5.35 | > 25 |  |  |  | 
8 | Cc1ccc(-c2cncc3[nH]c4cc(C)ccc4c23)cc1 [Compound 17] | 6.40 | 4.2 |  |  |  | 
9 | Cc1ccc(-c2cncc3[nH]c4c(C)cccc4c23)cc1 [Compound 18] | 6.15 | 5.4 |  |  |  | 
10 | CCOC(=O)c1ccc(-c2cncc3[nH]c4ccccc4c23)cc1 [Compound 19] | 5.47 | 6.3 |  |  |  | 
11 | CN(C)c1ccc(-c2cncc3[nH]c4ccccc4c23)cc1 [Compound 24] | 5.80 | 0.17 |  |  |  | 
12 | O=C(c1ccccc1)c1ccc(-c2cncc3[nH]c4ccccc4c23)cc1 [Compound 25] | 5.11 |  |  |  |  | 
13 | Cn1c2ccccc2c2c(-c3ccc(C(F)(F)F)cc3)cncc21 [Compound 26] | 5.60 | > 25 |  |  |  | 
14 | COc1ccc(-c2cncc3[nH]c4ccccc4c23)c(OC)c1 [Compound 27] | 5.89 | 5.6 |  |  |  | 
15 | Cc1ccc(-c2cncc3[nH]c4ccccc4c23)c(C)c1 [Compound 30] | 5.77 | 5.9 |  |  |  | 
16 | COc1cc(-c2cncc3[nH]c4ccccc4c23)cc(OC)c1OC [Compound 31] | 5.48 | 2.8 |  |  |  | 
17 | COc1ccc(-c2cncc3[nH]c4ccccc4c23)cc1C [Compound 33] | 6.00 | 5.3 |  |  |  | 
18 | Cc1ccc(-c2cncc3[nH]c4cc(CO)ccc4c23)cc1 [Compound 34] | 5.62 | 7.7 |  |  |  | 
19 | c1ccc(Cc2cncc3[nH]c4ccccc4c23)cc1 [Compound 37] | 5.66 | > 25 |  |  |  | 
20 | c1ccc2c(c1)[nH]c1cncc(C3CCCCC3)c12 [Compound 38] | 5.66 | > 25 |  |  |  | 
21 | Cc1ccc(-c2cncc3[nH]c4ccccc4c23)s1 [Compound 39] | 6.15 | 9.5 |  |  |  | 
22 | Cc1noc(-c2cncc3[nH]c4ccccc4c23)n1 [Compound 43] | < 4.35 | > 25 |  |  |  | 
23 | CC(C)c1noc(-c2cncc3[nH]c4ccccc4c23)n1 [Compound 44] | 5.89 | < 10 |  |  |  | 
24 | C=CC[C@@H]1/C=C(\C)C[C@H](C)C[C@H](OC)[C@H]2O[C@@](O)(C(=O)C(=O)N3CCCC[C@H]3C(=O)O[C@H](/C(C)=C/[C@@H]3CC[C@@H](O)[C@H](OC)C3)[C@H](C)[C@@H](O)CC1=O)[C@H](C)C[C@@H]2OC [FK506, reference compound] |  |  |  |  |  | 9.52

The next lines start with results.

Row | pIC50 [1] | IC50 [2] [µM] | IC50 [3] [µM] | pIC50 (IL-2 promoter; [5]) | Compound | ALLOGENEIC CELL TRANSPLANT % [4] [%] | pIC50 (IL-2 promoter; Jurkat, read-out: inhibition of luciferase activity, IC50)
25 | 4.76 | 21 | 38 |  | CCCc1cncc2[nH]c3ccccc3c12 [Compound 3, 4-Propyl-β-carboline] |  | 
26 | 4.85 | > 25 | 9.2 | 5.49 | COc1ccc(-c2cncc3[nH]c4ccc(Cl)cc4c23)cc1 [Compound 6] |  | 
27 | 5.96 | > 25 | 5 |  | Cc1cccc(-c2cncc3[nH]c4ccccc4c23)c1 [Compound 9] |  | 
28 | 5.92 | 4.5 | 0.3 |  | CCOc1ccc(-c2cncc3[nH]c4ccccc4c23)cc1 [Compound 12] | 49 | 
29 | 6.30 | 8.1 | 0.8 |  | Clc1ccc(-c2cncc3[nH]c4ccccc4c23)cc1 [Compound 13] |  | 
30 | 4.54 | 22 | 36 |  | c1cncc(-c2cncc3[nH]c4ccccc4c23)c1 [Compound 14] |  | 
31 | 6.52 | 1.1 |  |  | CC(C)c1ccc(-c2cncc3[nH]c4ccccc4c23)cc1 [Compound 20] |  | 
32 | 5.54 |  |  |  | Oc1ccc(-c2cncc3[nH]c4ccccc4c23)cc1 [Compound 21] |  | 
33 | 5.77 | 5.8 |  |  | COc1ccc2c(c1)[nH]c1cncc(-c3ccc(C)cc3)c12 [Compound 22] |  | 
34 | 4.82 |  |  |  | OCc1ccc(-c2cncc3[nH]c4ccccc4c23)cc1 [Compound 23] |  | 
35 | 6.15 | 4.8 |  |  | COc1cc(OC)cc(-c2cncc3[nH]c4ccccc4c23)c1 [Compound 28] |  | 
36 | 5.57 | 1.6 |  |  | COc1ccc(-c2cncc3[nH]c4ccccc4c23)cc1OC [Compound 29] |  | 
37 | 5.82 | 8.9 |  |  | Clc1ccc(-c2cncc3[nH]c4ccccc4c23)cc1Cl [Compound 32] |  | 
38 | 6.15 |  |  |  | COC(=O)c1ccc2c(c1)[nH]c1cncc(-c3ccc(C)cc3)c12 [Compound 35] |  | 
39 | 5.48 | 17 |  |  | COC(=O)c1cccc2c1[nH]c1cncc(-c3ccc(C)cc3)c12 [Compound 36] |  | 
40 | 4.84 | > 25 |  |  | Cc1ccnc(-c2cncc3[nH]c4ccccc4c23)c1 [Compound 40] |  | 
41 | 4.75 | > 25 |  |  | Cc1cnc(-c2cncc3[nH]c4ccccc4c23)s1 [Compound 41] |  | 
42 | 5.89 | 2.5 |  |  | c1ccc2cc(-c3cncc4[nH]c5ccccc5c34)ccc2c1 [Compound 42] |  | 

Reference: patent US6093723A, “4-substituted beta-carbolines and analogs thereof” (Boehringer Ingelheim Pharmaceuticals, Inc., priority 1997, dated 2000)
